Patent US9181309B1, “Peptide regulation of maize defense responses” (The United States of America, as represented by the …, priority 2011, dated 2015)

Legend:
[1] = system: herbivore defense genes in maize leaves; assay: Real time qPCR / qRT-PCR of defense and phytohormone biosynthesis genes in treated leaves
[2] = system: jasmonic acid and ethylene production in maize leaves; assay: Phytohormone (JA, ET) production in treated leaves; assay type: in vivo, Zea mays; details: low equivalent quantities of either elicitor
Description: A further embodiment is ZmPEP3 regulated production of defense-related metabolites. The elicitor-induced phytohormones JA and ethylene (ET) function as signals integral to initiation of protective responses against pathogens and herbivores (Howe and Jander, Annu Rev Plant Biol. 59:41, 2008).

[3] = system: Cotesia marginiventris; assay: Olfactometer assay of parasitoid wasp attraction to pretreated leaves; assay type: in vivo; details: naive C. marginiventris
Description: The generalist parasitoid Cotesia marginiventris attacks many Lepidopteran species including S. exigua and is attracted to herbivory-induced maize volatiles (Turlings et al., Science 250:1251, 1990). Precisely which components are attractive has been difficult to determine, and the wasps respond strongly to unidentified minor components when subjected to gas chromatograph-coupled electroantennography (Gouinguene et al., J Chem Ecol. 31:1023, 2005). To determine whether the ZmPep3-induced blend was attractive to naïve C. marginiventris, olfactometer assays were conducted with leaves pretreated with ZmPep3, Gln-18:3 or water for 16 h. To ensure that any preference was due to elicited plant responses and not to an inherent attraction or repellence to any treatment substance, leaves treated at time of assay were used as controls. […] Thus, ZmPep3-regulated responses are sufficient to generate effective indirect defenses against Lepidopteran herbivores.

[4] = system: defense metabolites in maize leaves; assay: Accumulation of defense metabolites within treated leaves (internal pools); assay type: in vivo, Zea mays; details: following treatment
Description: Induced terpene production is vital to anti-herbivore defenses in many plant species (Unsicker et al., Curr Opin Plant Biol. 12:479, 2009; Tholl, Curr Opin Plant Biol. 9:297, 2006; Keeling and Bohlmann, New Phytol 170:657, 2006). […] Expression of genes encoding the relevant biosynthetic enzymes, Anthranilic Acid Methyl Transferase 1 (AAMT1) and Indole-Glycerol Phosphate Lyase (IGL) were induced by both peptide and the insect elicitor ([…]., Plant Physiol 153:1795, 2010; Frey et al., Proc Natl Acad Sci USA. 97:14801, 2000). In addition to proteinaceous defenses, maize benzoxazinoids contribute to direct defenses against both herbivores and pathogens ([…] Agric Food Chem 57:1677, 2009). […] Oikawa et al., Phytochemistry. 56:669, 2001; Huffaker et al., Plant Physiol. 155:1325, 2011). […] It is hypothesized that simultaneous activation of both IGL and BX1 by ZmPep3 results in increased flux through the benzoxazinoid pathway to produce HDMBOA-Glc.

[5] = system: defense metabolites in maize leaves; details: in vivo; cited from earlier work
[6] = system: Pseudomonas syringae pv. tomato DC3000 and Xanthomonas campestris pv. vesicatoria; assay type: cell-based
[7] = system: Aspergillus niger, Trichoderma viride, Rhizopus sp., Penicillium sp., Aspergillus flavus and Fusarium graminearum; assay type: cell-based, fungi isolated from germinating maize kernels; details: for effect on fungal growth: 1 mM in PDA; for growth of fungal pathogens: 10 and 3.3 mM in PDA

Compound: CC/C=C\C/C=C\C/C=C\CCCCCCCC(=O)N[C@@H](CCC(N)=O)C(=O)O [Gln-18:3, N-Linolenoyl-L-glutamine, reference compound]
- BX1 and BX2 expression by qRT-PCR ([1]; 12 h post-treatment): expressed
- expression of genes encoding Terpene Synthases (TPS) 10 and 23 ([1]; equivalent molar concentrations): strongly activate expression
- expression of AAMT1 and IGL genes ([1]; in vivo): induced
- accumulation of transcripts for ACC Oxidase, Allene Oxide Synthase and Allene Oxide Cyclase ([1]; low equivalent quantities of elicitor): significantly increased accumulation of transcripts
- JA and ET synthesis [2]: elicitation of JA and ET synthesis
- wasp preference for leaves pretreated 16 h vs leaves treated at time of assay [3]: did not display a statistically significant preference
- anthranilate and indole in leaves [4]: increased

Compound: CC/C=C\C[C@H]1C(=O)CC[C@@H]1CC(=O)O [JA, jasmonic acid]
- HDMBOA-Glc induction (literature) [5]: induced

Compound: C=CC(C)(O)CCC=C(C)CCC=C(C)C (centres unmarked) [Nerolidol, nerolidol]
- bacterial (microbial) growth at any concentration [6]: did not limit microbial growth
- fungal (microbial) growth at any concentration ([7]; 10 mM to 0.3 mM): did not limit microbial growth
- sporulation of all fungi ([7]; all concentrations tested): strong inhibitor of sporulation

Compound: C[C@@H]1[C@H](O)[C@@H](C)/C=C/C=C/C=C/C=C/C=C/C=C/C=C/[C@H](O[C@@H]2O[C@H](C)[C@@H](O)[C@H](N)[C@@H]2O)C[C@@H]2O[C@](O)(C[C@@H](O)C[C@@H](O)[C@H](O)CC[C@@H](O)C[C@@H](O)CC(=O)O[C@H]1C)C[C@H](O)[C@H]2C(=O)O [amphotericin B, reference compound]
- bacterial growth on antimycotic-supplemented medium [6]: proliferated unaffected
- fungal growth on antimycotic-supplemented medium ([7]; three days after inoculation): have not spread from the center well

Compound: c1ccc2[nH]ccc2c1 [indole]
- bacterial growth at the lowest concentration tested [6]: particularly effective at limiting bacterial growth
- growth of bacterial pathogens [6]: prevented growth
- effect on fungal growth [7]: moderate limiting effect
- growth of fungal pathogens [7]: prevented growth

Compound: C=CC(C)(O)CCC=C(C)C (centres unmarked) [linalool]
- effect on bacterial (microbial) growth [6]: reduced
- growth of bacterial pathogens [6]: prevented growth
- effect on fungal growth [7]: reduced
- growth of fungal pathogens [7]: prevented growth

Compound: ZmPEP1: previously identified maize plant elicitor peptide VRRRPTTPGRPREGSGGNGGNHH (SEQ ID NO: 1) (Zea mays)
- HDMBOA-Glc induction (literature) [5]: induced

Compound: hexenal
- effect on bacterial (microbial) growth [6]: reduced
- growth of bacterial pathogens [6]: prevented growth
- effect on fungal growth [7]: reduced
- growth of fungal pathogens [7]: prevented growth
